SMILES strings stand for the structures. Converted amounts (≈) assume the structure as drawn.

Format in all cases: functional
The test system of assay [1] is Pseudomonas aeruginosa. The assay can be described thus: Antibacterial activity against Pseudomonas aeruginosa SR-5393 after 20 hrs by agar dilution method.
The test system of assay [2] is Streptococcus pneumoniae. The assay can be described thus: Antibacterial activity against penicillin resistant Streptococcus pneumoniae SR-16675 after 20 hrs by agar dilution method. (In general: In agar dilution, organisms are placed on agar that contains the substance at set levels.)
Assay [3] relates to Escherichia coli. The assay can be described thus: Antibacterial activity against Toho 2 (ESBL) producing Escherichia coli SR-21003 after 20 hrs by agar dilution method.
Assay [4] deals with Haemophilus influenzae. The assay can be described thus: Antibacterial activity against Haemophilus influenzae ATCC 49766 after 20 hrs by agar dilution method. Conditions: ATCC 49766, 20 h.
The subject of assay [5] is Enterobacter cloacae. The assay can be described thus: Antibacterial activity against AmpC producing Enterobacter cloacae SR-4321 after 20 hrs by agar dilution method.
Assay [6] relates to Staphylococcus aureus. As to the kind of experiment: Antibacterial activity against […] Staphylococcus aureus SMITH after 20 hrs by agar dilution method.
The test system of assay [7] is Enterobacter cloacae. As to the kind of experiment: Antibacterial activity against Enterobacter cloacae ATCC 13047 after 20 hrs by agar dilution method. Conditions: ATCC 13047, 20 h.
Assay [8] relates to Pseudomonas aeruginosa. The assay can be described thus: Antibacterial activity against AmpC hyperproducing Pseudomonas aeruginosa SR24-12 after 20 hrs by agar dilution method.
Assay [9] concerns Haemophilus influenzae. As to the kind of experiment: Antibacterial activity against beta-lactamase negative ampicillin resistant Haemophilus influenzae SR-11435 after 20 hrs by agar dilution method.
Assay [10] concerns Pseudomonas aeruginosa. The assay can be described thus: Antibacterial activity against Pseudomonas aeruginosa SR24 after 20 hrs by agar dilution method.
Assay [11] concerns Escherichia coli. The assay can be described thus: Antibacterial activity against Escherichia coli NIHJJC2 after 20 hrs by agar dilution method.
The test system of assay [12] is Moraxella catarrhalis. The assay can be described thus: Antibacterial activity against Moraxella catarrhalis ATCC 43617 after 20 hrs by agar dilution method. The settings on record: ATCC 43617, 20 h.
In assay [13] the test system is Pseudomonas aeruginosa. The assay can be described thus: Antibacterial activity against Imipenem resistant Pseudomonas aeruginosa SR-6554 after 20 hrs by agar dilution method.

`CNCCCn1ccc2c1ccc[n+]2CC1=C(C(=O)[O-])N2C(=O)[C@@H](NC(=O)/C(=N\O[C@@H](C)C(=O)O)c3csc(N)n3)[C@H]2SC1`: the MIC worked out at 2 µg/mL (≈ 3.11 µM) in [1]; 8 µg/mL (≈ 12.4 µM) in assay [2]; 1 µg/mL (≈ 1.56 µM) in [3]; 0.032 µg/mL (≈ 0.0498 µM) in [4]; 16 µg/mL (≈ 24.9 µM) in assay [5]; 2 µg/mL (≈ 3.11 µM) in assay [6]. The MIC turned out to be 0.25 µg/mL (≈ 0.389 µM) in assay [7]; 32 µg/mL (≈ 49.8 µM) in assay [8]; 0.063 µg/mL (≈ 0.098 µM) in assay [9]; 0.5 µg/mL (≈ 0.778 µM) in [10]; 0.063 µg/mL (≈ 0.098 µM) in assay [11]; 0.125 µg/mL (≈ 0.194 µM) in assay [12]. In assay [13], this molecule displayed an MIC of 16 µg/mL (≈ 24.9 µM).

For the molecule `CO/N=C(\C(=O)N[C@@H]1C(=O)N2C(C(=O)[O-])=C(C[N+]3(C)CCCC3)CS[C@H]12)c1csc(N)n1`, the MIC in [1] worked out at 4 µg/mL (≈ 8.32 µM); in assay [2], 2 µg/mL (≈ 4.16 µM); in assay [3], 4 µg/mL (≈ 8.32 µM); in assay [4] it was 0.032 µg/mL (≈ 0.0666 µM); in [6], 2 µg/mL (≈ 4.16 µM); in assay [8], 32 µg/mL (≈ 66.6 µM). The MIC in assay [9] came to 0.5 µg/mL (≈ 1.04 µM); in assay [10] it was 0.5 µg/mL (≈ 1.04 µM); in [11], 0.063 µg/mL (≈ 0.131 µM); in assay [12], 0.5 µg/mL (≈ 1.04 µM); in [13], 64 µg/mL (≈ 133 µM).

On to `CNCCCn1ccc2c1ccc[n+]2CC1=C(C(=O)[O-])N2C(=O)[C@@H](NC(=O)/C(=N\O[C@@H](C)C(=O)O)c3nsc(N)n3)[C@H]2SC1`, for which the MIC came to 2 µg/mL (≈ 3.11 µM) in assay [1]; 4 µg/mL (≈ 6.21 µM) in assay [2]; 8 µg/mL (≈ 12.4 µM) in assay [3]; 0.031 µg/mL (≈ 0.0482 µM) in assay [4]; 8 µg/mL (≈ 12.4 µM) in assay [5]; 2 µg/mL (≈ 3.11 µM) in assay [6]. Also, the MIC is 0.25 µg/mL (≈ 0.388 µM) in assay [7]; 16 µg/mL (≈ 24.9 µM) in assay [8]; 0.25 µg/mL (≈ 0.388 µM) in [9]; 0.5 µg/mL (≈ 0.777 µM) in assay [10]; 0.031 µg/mL (≈ 0.0482 µM) in assay [11]; 0.5 µg/mL (≈ 0.777 µM) in assay [12]. For the same molecule, the MIC in assay [13] came to 4 µg/mL (≈ 6.21 µM).

Regarding `CNCCCn1ccc2c1ccc[n+]2CC1=C(C(=O)[O-])N2C(=O)[C@@H](NC(=O)/C(=N\OC(C)(C)C(=O)O)c3nc(N)sc3Cl)[C@H]2SC1`, the MIC in assay [1] is 4 µg/mL (≈ 5.79 µM); in assay [2], 4 µg/mL (≈ 5.79 µM); in [3], 8 µg/mL (≈ 11.6 µM); in [4], 0.032 µg/mL (≈ 0.0463 µM); in assay [5], 4 µg/mL (≈ 5.79 µM); in assay [6], 2 µg/mL (≈ 2.89 µM). In addition, the MIC is 2 µg/mL (≈ 2.89 µM) in assay [7]; 8 µg/mL (≈ 11.6 µM) in assay [8]; 0.063 µg/mL (≈ 0.0911 µM) in assay [9]; 2 µg/mL (≈ 2.89 µM) in assay [10]; 1 µg/mL (≈ 1.45 µM) in assay [11]; 0.008 µg/mL (≈ 0.0116 µM) in assay [12]. This molecule also displayed an MIC in [13] of 16 µg/mL (≈ 23.1 µM).

With `CNCCCn1ccc2c1ccc[n+]2CC1=C(C(=O)[O-])N2C(=O)[C@@H](NC(=O)/C(=N\O[C@@H](CO)C(=O)O)c3nc(N)sc3Cl)[C@H]2SC1`, the MIC in [1] was determined as 4 µg/mL (≈ 5.77 µM); in assay [2], 8 µg/mL (≈ 11.5 µM); in assay [3], 2 µg/mL (≈ 2.89 µM); in assay [4], 0.063 µg/mL (≈ 0.0909 µM); in assay [5], 2 µg/mL (≈ 2.89 µM); in assay [6], 2 µg/mL (≈ 2.89 µM). Besides, the MIC in assay [7] amounted to 0.25 µg/mL (≈ 0.361 µM); in assay [8] it was 4 µg/mL (≈ 5.77 µM); in assay [9], 0.125 µg/mL (≈ 0.18 µM); in assay [10] it was 1 µg/mL (≈ 1.44 µM); in assay [11], 0.25 µg/mL (≈ 0.361 µM); in assay [12], 0.032 µg/mL (≈ 0.0462 µM). In assay [13], this molecule returned an MIC of 16 µg/mL (≈ 23.1 µM).

In the case of `CNCCCn1ccc2c1ccc[n+]2CC1=C(C(=O)[O-])N2C(=O)[C@@H](NC(=O)/C(=N\OCC(=O)O)c3nc(N)sc3Cl)[C@H]2SC1`, the MIC in [1] stood at 2 µg/mL (≈ 3.02 µM); in [2], 2 µg/mL (≈ 3.02 µM); in assay [3] it was 2 µg/mL (≈ 3.02 µM); in assay [4], 0.032 µg/mL (≈ 0.0483 µM); in assay [5], 8 µg/mL (≈ 12.1 µM); in assay [6], 2 µg/mL (≈ 3.02 µM). In addition, the MIC was determined as 0.25 µg/mL (≈ 0.377 µM) in assay [7]; 8 µg/mL (≈ 12.1 µM) in assay [8]; 0.125 µg/mL (≈ 0.188 µM) in [9]; 0.5 µg/mL (≈ 0.754 µM) in assay [10]; 0.25 µg/mL (≈ 0.377 µM) in assay [11]; 0.016 µg/mL (≈ 0.0241 µM) in [12]. In assay [13], this molecule came in with an MIC of 8 µg/mL (≈ 12.1 µM).

For `CNCCCn1ccc2c1ccc[n+]2CC1=C(C(=O)[O-])N2C(=O)[C@@H](NC(=O)/C(=N\OC(C)(C)C(=O)O)c3csc(N)n3)[C@H]2SC1`, the MIC amounted to 2 µg/mL (≈ 3.05 µM) in [1]; 2 µg/mL (≈ 3.05 µM) in assay [3]; 16 µg/mL (≈ 24.4 µM) in [5]; 1 µg/mL (≈ 1.52 µM) in [7]; 32 µg/mL (≈ 48.7 µM) in assay [8]; 1 µg/mL (≈ 1.52 µM) in [10]. Further, the figures for the MIC in assay [11] and in assay [13] were 0.25 µg/mL (≈ 0.381 µM) and 16 µg/mL (≈ 24.4 µM), respectively.

These data come from ChEMBL document CHEMBL1149714 (2007).
